# Test results: US10251395B2, “Substituted furano-/thienocycloalkylamino-2-pyrimidine derivatives and use thereof for controlling undesired plant growth” (Bayer CropScience Aktiengesellschaft, priority 2015, dated 2019)
# Columns and labels:
# Echinochloa crus-galli [1] = assay: Pre-emergence herbicidal effect; assay type: in vivo; conditions: scored visually after 3 weeks
# Method in brief: (§1)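 Pre-emergence soil-surface application of compound as WP or EC in water (600 to 800 L/ha, 0.2% wetting agent) to freshly sown, soil-covered seeds in sandy loam. After 3 weeks under greenhouse conditions, percent activity rated by eye versus untreated plants, from 0% (no effect) to 100% (death).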
# Setaria viridis [2] = assay: Pre-emergence herbicidal effect; assay type: in vivo; conditions: scored visually after 3 weeks
# Method in brief: as §1
# Amaranthus retroflexus [3] = assay: Pre-emergence herbicidal effect; assay type: in vivo; conditions: scored visually after 3 weeks
# Method in brief: as §1
# Stellaria media [4] = assay: Pre-emergence herbicidal effect; assay type: in vivo; conditions: scored visually after 3 weeks
# Method in brief: as §1
# Matricaria inodora [5] = assay: Pre-emergence herbicidal effect; assay type: in vivo; conditions: scored visually after 3 weeks
# Method in brief: as §1
# Viola tricolor [6] = assay: Pre-emergence herbicidal effect; assay type: in vivo; conditions: scored visually after 3 weeks
# Method in brief: as §1
# Ipomoea purpurea [7] = assay: Pre-emergence herbicidal effect; assay type: in vivo; conditions: Dosage 320 g/ha, scored visually after 3 weeks
# Method in brief: as §1
# Lolium multiflorum [8] = assay: Pre-emergence herbicidal effect; assay type: in vivo; conditions: scored visually after 3 weeks
# Method in brief: as §1
# Polygonum convolvulus [9] = assay: Pre-emergence herbicidal effect; assay type: in vivo; conditions: scored visually after 3 weeks
# Method in brief: as §1
# Veronica persica [10] = assay: Pre-emergence herbicidal effect; assay type: in vivo; conditions: scored visually after 3 weeks
# Method in brief: as §1
# Abutilon theophrasti [11] = assay: Pre-emergence herbicidal effect; assay type: in vivo; conditions: scored visually after 3 weeks
# Method in brief: as §1
# Avena fatua [12] = assay: Pre-emergence herbicidal effect; assay type: in vivo; conditions: Dosage 320 g/ha, scored visually after 3 weeks
# Method in brief: as §1
# Alopecurus myosuroides [13] = assay: Pre-emergence herbicidal effect; assay type: in vivo; conditions: scored visually after 3 weeks
# Method in brief: as §1
# Echinochloa crus-galli [14] = assay: Post-emergence herbicidal effect; assay type: in vivo; conditions: assessed visually after about 3 weeks vs untreated controls
# Method in brief: (§2)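 Herbicidal effect was rated visually roughly 3 weeks after foliar treatment, as % versus untreated plants, with 0% meaning the same as controls and 100% meaning dead. Plants were treated at the one-leaf stage in the greenhouse with aqueous WP or EC sprays at 600–800 L/ha containing 0.2% wetter.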
# Setaria viridis [15] = assay: Post-emergence herbicidal effect; assay type: in vivo; conditions: assessed visually after about 3 weeks vs untreated controls
# Method in brief: as §2
# Amaranthus retroflexus [16] = assay: Post-emergence herbicidal effect; assay type: in vivo; conditions: assessed visually after about 3 weeks vs untreated controls
# Method in brief: as §2
# Stellaria media [17] = assay: Post-emergence herbicidal effect; assay type: in vivo; conditions: assessed visually after about 3 weeks vs untreated controls
# Method in brief: as §2
# Matricaria inodora [18] = assay: Post-emergence herbicidal effect; assay type: in vivo; conditions: assessed visually after about 3 weeks vs untreated controls
# Method in brief: as §2
# Viola tricolor [19] = assay: Post-emergence herbicidal effect; assay type: in vivo; conditions: assessed visually after about 3 weeks vs untreated controls
# Method in brief: as §2
# Ipomoea purpurea [20] = assay: Post-emergence herbicidal effect; assay type: in vivo; conditions: assessed visually after about 3 weeks vs untreated controls
# Method in brief: as §2
# Lolium multiflorum [21] = assay: Post-emergence herbicidal effect; assay type: in vivo; conditions: assessed visually after about 3 weeks vs untreated controls
# Method in brief: as §2
# Polygonum convolvulus [22] = assay: Post-emergence herbicidal effect; assay type: in vivo; conditions: assessed visually after about 3 weeks vs untreated controls
# Method in brief: as §2
# Veronica persica [23] = assay: Post-emergence herbicidal effect; assay type: in vivo; conditions: 320 g/ha, assessed visually after about 3 weeks vs untreated controls
# Method in brief: as §2
# Abutilon theophrasti [24] = assay: Post-emergence herbicidal effect; assay type: in vivo; conditions: assessed visually after about 3 weeks vs untreated controls
# Method in brief: as §2
# Avena fatua [25] = assay: Post-emergence herbicidal effect; assay type: in vivo; conditions: assessed visually after about 3 weeks vs untreated controls
# Method in brief: as §2
# Alopecurus myosuroides [26] = assay: Post-emergence herbicidal effect; assay type: in vivo; conditions: assessed visually after about 3 weeks vs untreated controls
# Method in brief: as §2
# logP (HCOOH) = assay type: physicochemical
# Excerpt: Table 2 (physicochemical characterization of selected synthesis examples)
smiles,measurement,setting,value
Cc1cc2c(s1)CCCC2Nc1ncc(C(F)(F)F)c(N)n1 (racemic) [compound 257],ECHCG pre-emergence efficacy (herbicidal activity),Echinochloa crus-galli [1]; Dosage 80 g/ha,100%
same,ECHCG pre-emergence efficacy (herbicidal activity),Echinochloa crus-galli [1]; Dosage 320 g/ha,100%
same,SETVI pre-emergence efficacy (herbicidal activity),Setaria viridis [2]; Dosage 80 g/ha,100%
same,SETVI pre-emergence efficacy (herbicidal activity),Setaria viridis [2]; Dosage 320 g/ha,100%
same,AMARE pre-emergence efficacy (herbicidal activity),Amaranthus retroflexus [3]; Dosage 80 g/ha,100%
same,AMARE pre-emergence efficacy (herbicidal activity),Amaranthus retroflexus [3]; Dosage 320 g/ha,100%
same,STEME pre-emergence efficacy (herbicidal activity),Stellaria media [4]; Dosage 80 g/ha,100%
same,STEME pre-emergence efficacy (herbicidal activity),Stellaria media [4]; Dosage 320 g/ha,100%
same,MATIN pre-emergence efficacy (herbicidal activity),Matricaria inodora [5]; Dosage 80 g/ha,100%
same,MATIN pre-emergence efficacy (herbicidal activity),Matricaria inodora [5]; Dosage 320 g/ha,100%
same,VIOTR pre-emergence efficacy (herbicidal activity),Viola tricolor [6]; Dosage 80 g/ha,100%
same,VIOTR pre-emergence efficacy (herbicidal activity),Viola tricolor [6]; Dosage 320 g/ha,100%
same,PHBPU pre-emergence efficacy (herbicidal activity),Ipomoea purpurea [7],100%
same,LOLMU pre-emergence efficacy (herbicidal activity),Lolium multiflorum [8]; Dosage 80 g/ha,100%
same,LOLMU pre-emergence efficacy (herbicidal activity),Lolium multiflorum [8]; Dosage 320 g/ha,100%
same,POLCO pre-emergence efficacy (herbicidal activity),Polygonum convolvulus [9]; Dosage 80 g/ha,100%
same,POLCO pre-emergence efficacy (herbicidal activity),Polygonum convolvulus [9]; Dosage 320 g/ha,100%
same,VERPE pre-emergence efficacy (herbicidal activity),Veronica persica [10]; Dosage 80 g/ha,100%
same,VERPE pre-emergence efficacy (herbicidal activity),Veronica persica [10]; Dosage 320 g/ha,100%
same,ABUTH pre-emergence efficacy (herbicidal activity),Abutilon theophrasti [11]; Dosage 80 g/ha,70%
same,ABUTH pre-emergence efficacy (herbicidal activity),Abutilon theophrasti [11]; Dosage 320 g/ha,100%
same,AVEFA pre-emergence efficacy (herbicidal activity),Avena fatua [12],100%
same,ALOMY pre-emergence efficacy (herbicidal activity),Alopecurus myosuroides [13]; Dosage 80 g/ha,100%
same,ALOMY pre-emergence efficacy (herbicidal activity),Alopecurus myosuroides [13]; Dosage 320 g/ha,100%
same,post-emergence efficacy ECHCG,Echinochloa crus-galli [14]; 80 g/ha,90%
same,post-emergence efficacy ECHCG,Echinochloa crus-galli [14]; 320 g/ha,100%
same,post-emergence efficacy SETVI,Setaria viridis [15]; 80 g/ha,90%
same,post-emergence efficacy SETVI,Setaria viridis [15]; 320 g/ha,90%
same,post-emergence efficacy AMARE,Amaranthus retroflexus [16]; 80 g/ha,80%
same,post-emergence efficacy AMARE,Amaranthus retroflexus [16]; 320 g/ha,90%
same,post-emergence efficacy STEME,Stellaria media [17]; 80 g/ha,80%
same,post-emergence efficacy STEME,Stellaria media [17]; 320 g/ha,100%
same,post-emergence efficacy MATIN,Matricaria inodora [18]; 80 g/ha,90%
same,post-emergence efficacy MATIN,Matricaria inodora [18]; 320 g/ha,90%
same,post-emergence efficacy VIOTR,Viola tricolor [19]; 80 g/ha,90%
same,post-emergence efficacy VIOTR,Viola tricolor [19]; 320 g/ha,90%
same,post-emergence efficacy PHBPU,Ipomoea purpurea [20]; 80 g/ha,80%
same,post-emergence efficacy PHBPU,Ipomoea purpurea [20]; 320 g/ha,90%
same,post-emergence efficacy LOLMU,Lolium multiflorum [21]; 80 g/ha,100%
same,post-emergence efficacy LOLMU,Lolium multiflorum [21]; 320 g/ha,100%
same,post-emergence efficacy POLCO,Polygonum convolvulus [22]; 80 g/ha,60%
same,post-emergence efficacy POLCO,Polygonum convolvulus [22]; 320 g/ha,80%
same,post-emergence efficacy VERPE,Veronica persica [23],100%
same,post-emergence efficacy ABUTH,Abutilon theophrasti [24]; 80 g/ha,90%
same,post-emergence efficacy ABUTH,Abutilon theophrasti [24]; 320 g/ha,90%
same,post-emergence efficacy AVEFA,Avena fatua [25]; 80 g/ha,70%
same,post-emergence efficacy AVEFA,Avena fatua [25]; 320 g/ha,100%
same,post-emergence efficacy ALOMY,Alopecurus myosuroides [26]; 80 g/ha,70%
same,post-emergence efficacy ALOMY,Alopecurus myosuroides [26]; 320 g/ha,90%
same,logP (HCOOH),logP (HCOOH); HCOOH,"oily; logP (HCOOH): 2.02; 1H NMR (CDCl3, 400 MHZ, δ in ppm): 2.10 (m, 1H, 1H of"
"Cc1cc2c(o1)CC(C)(C)CC2Nc1ncc(C(F)(F)F)c(N)n1 (stereo not shown) [compound 21, 5-(Trifluoromethyl)-N2-(2,6,6-trimethyl-4,5,6,7-tetrahydro-1-benzofuran-4-yl)pyrimidine-2,4-diamine]",chromatographic logP,logP (HCOOH); HCOOH (formic acid),2.23
same,melting point,,182.6 °C
